The results in this text go back to patent US20070135509A1, “Indolone compounds useful to treat cognitive impairment” (priority 2005, published 2007).

Assay [1] deals with C57BL/6 mice. The assay is described as follows: Contextual fear conditioning (contextual memory, freezing to context). The assay is classed as in vivo. Conditions: for 24 h contextual memory (freezing) / freezing to context 24 hr after training: mean±SEM; for 24 h contextual memory (freezing): controls 22.3±3.2%; for freezing to context 24 hr after training: controls 24.5±3.2%. An excerpt:
Contextual Memory. Contextual memory is a form of Pavlovian fear conditioning in which a naïve mouse is placed into a novel chamber (context) containing distinct visual, olfactory and tactile cues. After a few seconds of acclimation, the mouse receives a brief, mild electric shock to its feet. From this negative experience, the mouse will remember for months that that chamber is dangerous. When placed back into the same context at some later time after training, the mouse's natural response to danger is to “freeze,” sitting stone still for many seconds. This is similar to what happens to humans when they experience fear. The percent of time during an observation period that the mouse spends frozen represents a quantitative measure (memory score) of its memory of the context.
(§1) Subjects. Young-adult (10-12 weeks old) C57B1/6 male mice (Taconic, N.Y.) were used. The mice were housed (5 mice) in standard laboratory cages and maintained on a 12:12 light-dark cycle. The experiments were always conducted during the light phase of the cycle. The day before the initiation of the experiment, mice were housed single in individual cages and maintained so until the end of the experiment. With the exception of testing times, the mice had liberal access to food and water. The experiments were conducted in accordance with Animal Welfare Assurance #A3280-01. Animals were maintained in accordance with the Animal Welfare Act and Department of Health and Human Services Guide.
Contextual Conditioning Training and Testing. To assess contextual memory, a standardized contextual fear conditioning task originally developed for evaluation of memory in cyclic AMP response element binding protein (“CREB”) knock-out mice was used (Bourtchouladze et al., 1994). On the training day, the mouse was placed into the conditioning chamber (Med Associates, Inc., VA) for 2 minutes before the onset of unconditioned stimulus (US), 0.5 mA, of 2 second foot shock. The US was repeated two times with a 1 min inter-trial interval between shocks. Training was performed by automated software package (Med Associates, Inc., VA). After the last training trial, the mice were left in the conditioning chamber for another 30 seconds and were then placed back in their home cages. 24 hours after training, the mouse was placed into the same training chamber and contextual memory was assessed by scoring freezing behavior (‘freezing’ serves as memory score). Freezing was defined as the complete lack of movement in intervals of 5 seconds (Kim et al., 1993; Phillips & LeDoux, 1992; Bourtchouladze et al., 1994; 1998; Abel et al., 1997). Total testing time lasted 3 minutes. After each experimental subject, the experimental apparatus was thoroughly cleaned with 75% ethanol, water, dried, and ventilated for a few minutes.
Contextual Conditioning Data Analysis. All experiments were designed and performed in a balanced fashion, meaning that (i) for each experimental condition (e.g. a specific dose-effect) we used an equal number of experimental and control mice; (ii) each experimental condition was replicated 2-3 independent times, and replicate days were added to generate final number of subjects. The proceeding of each experiment was filmed. In each experiment, the experimenter was unaware (blind) to the treatment of the subjects during training and testing. Data were analyzed by Student's unpaired t test using a software package (Statwiew 5.0.1; SAS Institute, Inc). All values in the text and figures are expressed as mean±SEM.
Drug Compound Administration. Compound 2 was freshly prepared from a stock solution (10 mg/ml DMSO), which was maintained at 4° C. Compound 2 was dissolved in a suspension of 5% DMSO and 95% CMC at 2% in water and administered intraperitoneally (I.P.) at doses 5 mg/kg; 10 mg/kg and 30 mg/kg 20 min before training or at 1 mg/kg and 30 mg/kg orally 60 min before training. Control animals received vehicle alone (5% DMSO and 95% CMC at 2% in water). […]

Assay [2] deals with C57BL/6 mice. The assay is described as follows: Object recognition (novel object recognition memory). It is filed as in vivo. Conditions: for Discrimination Index (DI), 24 hour object recognition: mean±SEM, vehicle -10.2±4.
From the text: Object Recognition. […] This task relies on the natural curiosity of rodents to explore novel objects in their environments more than familiar ones. Obviously, for an object to be “familiar,” the animal must have attended to it before and remembered that experience.
During training, a mouse is presented with two identical, novel objects. Mice explore them equally by approaching, sniffing and crawling over them. During testing, the animal is presented with the training object and a second, novel one. Memory of the training object renders it familiar to the animal, and it then spends more time exploring the new novel object rather than the familiar one (Bourtchouladze t al., 2003). […] Consistent with these findings, rats with the PFC lesions show poor working memory when they are required to discriminate between familiar and novel objects (Mitchell, 1998).
as §1
Object Recognition Training and Testing. […]
Object Recognition Data Analysis. […] Types were reviewed by a blinded observer and the following behavioral parameters were determined: time of exploration of an each object; the total time of exploration of the objects; number of approaches to the objects; and time (latency) to first approach to an object. The discrimination index—memory score—was determined as described previously (Ennaceur et al., 1997, Bourtchouladze et al., 2003). […] All values in the text and figures are expressed as mean±SEM. […]

Consider `O=C1C(=Nc2cccc(C(F)(F)F)c2)c2ccccc2N1c1ccccc1` [Compound 2, 1-PHENYL-3-[[3-(TRIFLUOROMETHYL)PHENYL]IMINO]-1,3-DIHYDRO-2H-INDOL-2-ONE], for which the “24 h contextual memory (freezing)” value with C57BL/6 mice [1] (1 mg/kg oral 60 min before training, p<0.01) worked out at 36.4±3.9%; with C57BL/6 mice [1] (30 mg/kg oral 60 min before training, p<0.05) it was 34.1±4.3%. For the same compound, the “freezing to context 24 hr after training” value in the assay on C57BL/6 mice [1] (5 mg/kg I.P. 20 min before training, p<0.05) was 40.3±4.7%; in the assay with C57BL/6 mice [1] (10 mg/kg I.P. 20 min before training, p<0.01), 51.4±9.1%; in the assay with C57BL/6 mice [1] (30 mg/kg I.P. 20 min before training, p<0.001) it was 49.1±3.7%. Moreover, the “Effects on contextual memory in mice (FIG. 1)” value with C57BL/6 mice [1] (5 mg/kg, 10 mg/kg and 30 mg/kg i.p., 24 hours after training) is “significantly facilitated freezing to context”. In addition, the “Effects on contextual memory in mice (FIG. 2)” value with C57BL/6 mice [1] (single dose of 1 mg/kg or 30 mg/kg orally, 24 hr) is “significantly enhanced 24 hr contextual memory”. The “Effect on object recognition memory in mice (FIG. 3)” value with C57BL/6 mice [2] (1 mg/kg and 5 mg/kg i.p. twenty (20) minutes before training, C57BL/6 mice) is recorded as “ameliorated long-term memory deficit”. Moreover, the “Discrimination Index (DI), 24 hour object recognition” value worked out at 5.1±6 with C57BL/6 mice [2] (1 mg/kg i.p. 20 minutes before 15-minute training, p<0.05) and 18.8±6.6 in the assay on C57BL/6 mice [2] (5 mg/kg i.p. 20 minutes before 15-minute training, p<0.0005).
